Source: ChEMBL document CHEMBL1201862, “PubChem BioAssay data set” (2004)
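Tested at 5 concentrations; 48 h exposure; 96-well plates; endpoints linearly interpolated, else capped at highest concentration. GI50 marks 50% less growth.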 Calls of active or inactive are those of the source. Rule as the data show it: active = GI50 up to about 1.1 µM and inactive = higher.

Columns and labels:
Test in all cases: growth of human tumour cells (NCI), 48 h
[1] = tested on: UO-31
[2] = tested on: DMS-273
[3] = tested on: HCT-15
[4] = tested on: UACC-257
[5] = tested on: RPMI-8226
[6] = tested on: A549
[7] = tested on: OVCAR-8
[8] = tested on: IGROV-1
[9] = tested on: OVCAR-4
[10] = tested on: HCC 2998
[11] = tested on: NCI-H460
[12] = tested on: CAKI-1
[13] = tested on: Malme-3M
[14] = tested on: KM12
[15] = tested on: MOLT-4
[16] = tested on: SW-620
[17] = tested on: RXF 393
[18] = tested on: MDA-MB-231
[19] = tested on: HCT-116
[20] = tested on: HL-60

Cc1cc(Cl)ccc1NC1=NC(=O)C(CC(=O)Nc2ccc([N+](=O)[O-])cc2[N+](=O)[O-])S1 (stereo unspecified)
GI50 [1]: 17.1 µM (inactive) | GI50 [2]: 30.5 µM (inactive) | GI50 [3]: 29.5 µM | GI50 [4]: 28.4 µM (inactive) | GI50 [5]: 17.9 µM (inactive) | GI50 [6]: 27.5 µM (inactive) | GI50 [7]: 34.1 µM (inactive) | GI50 [8]: 32.3 µM (inactive) | GI50 [9]: 19.2 µM (inactive) | GI50 [10]: 39.6 µM (inactive) | GI50 [11]: 29.1 µM (inactive) | GI50 [12]: 26.3 µM (inactive) | GI50 [13]: 26.1 µM (inactive) | GI50 [14]: 35.1 µM (inactive) | GI50 [15]: 19.4 µM (inactive) | GI50 [16]: 32.9 µM (inactive)

NC(=O)c1ccc(N)nc1 [6-AMINONICOTINAMIDE]
GI50 [17]: 0.138 µM (active) | GI50 [1]: 29.4 µM (inactive) | GI50 [3]: 17.5 µM | GI50 [18]: 39.4 µM (inactive) | GI50 [4]: 0.986 µM (active) | GI50 [5]: 9.75 µM (inactive) | GI50 [6]: 54.5 µM (inactive) | GI50 [7]: 17.6 µM (inactive) | GI50 [8]: 108 µM (inactive) | GI50 [9]: 7.01 µM (inactive) | GI50 [10]: 31.5 µM (inactive) | GI50 [11]: 5.16 µM (inactive) | GI50 [12]: 17.6 µM (inactive) | GI50 [19]: > 187 µM (inactive) | GI50 [13]: 33.2 µM (inactive) | GI50 [14]: 48.1 µM (inactive) | GI50 [15]: 38.6 µM (inactive) | GI50 [20]: 53.3 µM (inactive) | GI50 [16]: 82 µM (inactive)

COc1cc(C)cc(C(=O)OCc2ccccc2)c1C1=C(Cl)C(=O)C(Cl)=CC1=O
GI50 [17]: > 10 µM (inactive) | GI50 [1]: 3.25 µM (inactive) | GI50 [3]: > 10 µM | GI50 [18]: > 10 µM (inactive) | GI50 [4]: > 9.02 µM (inactive) | GI50 [5]: > 5.79 µM (inactive) | GI50 [6]: > 10 µM (inactive) | GI50 [7]: > 10 µM (inactive) | GI50 [8]: > 10 µM (inactive) | GI50 [9]: > 5.13 µM (inactive) | GI50 [10]: > 10 µM (inactive) | GI50 [11]: > 10 µM (inactive) | GI50 [12]: > 10 µM (inactive) | GI50 [19]: > 10 µM (inactive) | GI50 [13]: > 10 µM (inactive) | GI50 [14]: > 10 µM (inactive) | GI50 [15]: 2.42 µM (inactive) | GI50 [20]: 1.86 µM (inactive) | GI50 [16]: > 7.59 µM (inactive)

CCCCCCCC1C(C)c2c([nH]c3ccccc23)C2C(=O)N(c3ccc(OC)cc3)C(=O)C21 (stereo unspecified)
GI50 [17]: 2.79 µM (inactive) | GI50 [1]: 2.51 µM (inactive) | GI50 [3]: > 7.76 µM | GI50 [18]: 3.82 µM (inactive) | GI50 [4]: 2.64 µM (inactive) | GI50 [5]: > 5.73 µM (inactive) | GI50 [6]: 2.33 µM (inactive) | GI50 [7]: 2.52 µM (inactive) | GI50 [8]: > 5.89 µM (inactive) | GI50 [9]: 2.9 µM (inactive) | GI50 [10]: 7.6 µM (inactive) | GI50 [11]: 1.87 µM (inactive) | GI50 [12]: 3.26 µM (inactive) | GI50 [19]: 1.79 µM (inactive) | GI50 [13]: > 4.86 µM (inactive) | GI50 [14]: 6.34 µM (inactive) | GI50 [15]: 3.2 µM (inactive) | GI50 [20]: 1.95 µM (inactive) | GI50 [16]: 3.02 µM (inactive)

Nc1ccc2c(=O)cc(-c3cccs3)[nH]c2n1
GI50 [17]: 4.17 µM (inactive) | GI50 [1]: 3.54 µM (inactive) | GI50 [3]: 1.29 µM | GI50 [18]: 11.8 µM (inactive) | GI50 [4]: 5.9 µM (inactive) | GI50 [5]: 1.54 µM (inactive) | GI50 [6]: 3.65 µM (inactive) | GI50 [7]: 2.86 µM (inactive) | GI50 [8]: 2.64 µM (inactive) | GI50 [9]: > 35.7 µM (inactive) | GI50 [10]: 2.19 µM (inactive) | GI50 [11]: 2.77 µM (inactive) | GI50 [12]: 6.67 µM (inactive) | GI50 [19]: 1.25 µM (inactive) | GI50 [13]: 8.18 µM (inactive) | GI50 [14]: 0.535 µM (active) | GI50 [15]: 1.51 µM (inactive) | GI50 [20]: 0.234 µM (active) | GI50 [16]: 1.01 µM (active)

Clc1c(C(Cl)(Cl)Cl)nsc1N1CCCCC1
GI50 [17]: 16.8 µM (inactive) | GI50 [1]: 11.4 µM (inactive) | GI50 [3]: 26.5 µM | GI50 [18]: 23.8 µM (inactive) | GI50 [4]: 23.3 µM (inactive) | GI50 [5]: 12.6 µM (inactive) | GI50 [6]: 33.9 µM (inactive) | GI50 [7]: 27.4 µM (inactive) | GI50 [8]: 36 µM (inactive) | GI50 [9]: 25.6 µM (inactive) | GI50 [10]: 22.2 µM (inactive) | GI50 [11]: 33.6 µM (inactive) | GI50 [12]: 19.4 µM (inactive) | GI50 [19]: 24.3 µM (inactive) | GI50 [13]: 13.5 µM (inactive) | GI50 [14]: 20.7 µM (inactive) | GI50 [15]: 15.2 µM (inactive) | GI50 [20]: 16.6 µM (inactive) | GI50 [16]: 32.4 µM (inactive)
